Results from US8512695B2 (priority 2008, dated 2013).
Read-outs that look alike come from different tables or passages of the source.

Columns and labels:
adipocytes of fat grafts = assay: Apoptosis quantification in explanted fat grafts (Mito-PT / Apo-One fluorescent labels, plate reader); format: in vivo; conditions: for apoptosis level (words): early engraftment period, first ten days
Method: Apoptosis Identification. Immunochemistry apoptosis specific fluorescent labels FLIVO™ and MT Mito™ were used to identify apoptosis in adipocytes. Fat grafts were explanted, treated with Blendzyme (Roche Applied Science Liberase Blendzyme 3) at 38° C. for 20 minutes, and passed through a 100 micron cell strainer (to remove extra-cellular stromal elements left behind after digestion). These cells were then incubated for one hour at 38° C., and washed once following labeling. Afterwards these cells were placed into 96 well black plates, and read on a plate reader (Molecular Devices, SpectraMax M2) at their dye-specific emission and excitation wavelengths (FLIVO-red ex 565/em>590, MITO-PT ex 488/em green 530, red 590).
Fat Processing. Lipoaspirate was taken directly from the operating room. It was separated into 30 cc aliquots, and washed once with an equal volume of normal saline to remove blood and cellular debris. Afterwards, the tubes were centrifuged at 200G and the middle layer was separated and treated with various agents. These agents were treated in 30 cc washes, with 30 cc of fat for 30 minutes at 37° C. This incubation was chosen to minimize ischemic time while allowing for sufficient mixing with treatment agents. Following incubation and washing, the fat was again centrifuged at 200G. The middle fat layer was again separated and placed in 1.0 cc, 1.0 g aliquots for injection into the flanks of nude mice. This was performed under IRB approval for use of de-identified discarded tissue. Of note, the harvesting cannulas and harvesting pressures varied case by case and surgeon by surgeon. Fat was engrafted into animals within two hours of collection from the operating room in order to minimize warm ischemia time.
Experimental Model. Nude mice were implanted with 1.0 cc/1.0 g (+/−0.01 gm) fat grafts in a single lobule. These mice were injected with a 14 gauge angio-catheter to simulate a clinically relevant 1 cc injection. Two lobules were implanted into bilateral flanks of each nude mouse used in the study. The 14 gauge angio-catheter was chosen to minimize fat graft trauma during injection. Many clinicians use 16 and 14 gauge catheters currently for fat grafting, thus this size catheter was used to approximate clinical practice.
Initially, the lobules were explanted daily and measured for weight and apoptotic activity. After early curves were generated, lobules were explanted on days 3, 6, and 9, for the primary measurement of apoptosis levels. Additionally these samples were weighed, sent for histology, and measured for DNA content. Endpoints in the first ten days were compared to endpoints at six weeks to determine whether graft performance can be accurately predicted by early apoptosis and cell death.
Each experiment consisted of an early group and a late group of mice. Each group was injected with the same fat from a single patient on a single day. For the early time points two animals were euthanized on each sampling day for each group (n=4 lobules per each early time point). Additionally, animals from these same groups were then euthanized at six weeks for examination of late endpoints (8 animals generating 16 lobules were used for each group of late time points). Once an animal was euthanized, both lobules were collected analyzed, and the animal was removed from the study.
Apoptosis Quantification. Initially, lobules were explanted daily and measured for levels of apoptosis using Mito-PT. After daily testing, it was noted that peak levels of apoptosis occurred between days 5-7, and then trended back down. These values fell approximately in a bell shaped curve. Once this curve was determined, subsequent samples were tested on days 0, 3, 6, and 9, for a sampling of early apoptosis (see FIG. 7).

fat grafts [1] = assay: Weight / reabsorption by weight of 1.0 cc/1.0 g fat grafts; format: in vivo, nude mice
Method: (§1) Fat Processing. Lipoaspirate was taken directly from the operating room. It was separated into 30 cc aliquots, and washed once with an equal volume of normal saline to remove blood and cellular debris. Afterwards, the tubes were centrifuged at 200G and the middle layer was separated and treated with various agents. These agents were treated in 30 cc washes, with 30 cc of fat for 30 minutes at 37° C. This incubation was chosen to minimize ischemic time while allowing for sufficient mixing with treatment agents. Following incubation and washing, the fat was again centrifuged at 200G. The middle fat layer was again separated and placed in 1.0 cc, 1.0 g aliquots for injection into the flanks of nude mice. […] Fat was engrafted into animals within two hours of collection from the operating room in order to minimize warm ischemia time.
Each experiment consisted of an early group and a late group of mice. […] For the early time points two animals were euthanized on each sampling day for each group (n=4 lobules per each early time point). Additionally, animals from these same groups were then euthanized at six weeks for examination of late endpoints (8 animals generating 16 lobules were used for each group of late time points). Once an animal was euthanized, both lobules were collected analyzed, and the animal was removed from the study.

fat grafts [2] = format: in vivo
Method: as §1
Experimental Model. Nude mice were implanted with 1.0 cc/1.0 g (+/−0.01 gm) fat grafts in a single lobule. […]
Initially, the lobules were explanted daily and measured for weight and apoptotic activity. […] Additionally these samples were weighed, sent for histology, and measured for DNA content. […]
Each experiment consisted of an early group and a late group of mice. […] Once an animal was euthanized, both lobules were collected analyzed, and the animal was removed from the study.

[3] = Day 3, comparison experiments of FIG. 8
[4] = agents tested for potential additive effects with P188, saline in this group 0.74 g
[5] = Day 6, comparison experiments of FIG. 8

Phosphatidylcholine [PC]
apoptosis level (adipocytes of fat grafts; [3]): 52,000 RFUs | apoptosis level (words) (adipocytes of fat grafts; listed as Phosphatidylcholine): elevated levels of apoptosis compared to P188 | apoptosis level (words) (adipocytes of fat grafts; listed as phosphatidylcholine): some protective effect, but not to the same magnitude as P188

CC(C)CCC[C@@H](C)[C@H]1CC[C@H]2[C@@H]3CC=C4C[C@@H](O)CC[C@]4(C)[C@H]3CC[C@]12C [cholesterol]
weight at six weeks (fat grafts [1]; [4]): 0.73 ± 0.04 g | overall effect on / toxicity to fat grafts (fat grafts [2]; conclusion over early and late endpoints): toxic

O=C1O[C@H]([C@@H](O)CO)C(O)=C1O [vitamin C, ascorbic acid]
apoptosis level (words) (adipocytes of fat grafts): high levels of apoptosis

O=C(O)CCCC[C@@H]1CCSS1 (racemic) [lipoic acid]
apoptosis level (words) (adipocytes of fat grafts): decreased apoptosis during the engraftment period when compared to saline treated controls | weight at six weeks (fat grafts [1]; 1.0 cc/1.0 g graft implanted, six weeks): 0.65 ± 0.09 g | reabsorption by weight (fat grafts [1]; six weeks): statistically significant differences in reabsorption

CCCCCCCCCCCCCCCC[N+](C)(C)C.[Br-] [HCTA, Hexadecyltrimethylammonium bromide]
apoptosis level (adipocytes of fat grafts; [3]): 31,076 RFUs | apoptosis level (adipocytes of fat grafts; [5]): 41,037 RFUs | apoptosis level (words) (adipocytes of fat grafts): higher levels of apoptosis than normal saline controls at earlier time points

CCCCCCCCCCCCCCCC[N+](C)(C)C.[Cl-] [CTA, cetyltrimethylammonium chloride]
apoptosis level (adipocytes of fat grafts; [3]): 35,338 RFUs | apoptosis level (adipocytes of fat grafts; [5]): 35,338 RFUs | apoptosis level (words) (adipocytes of fat grafts): higher levels of apoptosis than normal saline controls at earlier time points

Oc1ccc(C=Cc2cc(O)cc(O)c2)cc1 [resveratrol]
weight at six weeks (fat grafts [1]; [4]): 0.73 ± 0.03 g | overall effect on / toxicity to fat grafts (fat grafts [2]; mouse, in vivo): toxic
